≈ marks a conversion by molar mass, not a printed value. Calls of active or inactive are those of the source. The calls are words filed in the database; no cut-off is given here.
Tests used:
HUVEC [1] = test: Cytotoxicity against TNFalpha-stimulated HUVEC at 10 uM after 6 hrs by MTT assay; format: cell-based; details: human
HUVEC [2] = test: Induction of VCAM1 expression in HUVEC after 1 hr by ELISA; format: cell-based; details: human
HUVEC [3] = test: Induction of ICAM1 expression in HUVEC after 1 hr by flow cytometry analysis; format: cell-based; details: human
HUVEC [4] = test: Induction of E-selectin expression in HUVEC after 1 hr by flow cytometry analysis; format: cell-based; details: human
HUVEC [5] = test: Antiinflammatory activity in HUVEC assessed as inhibition of TNFalpha-induced VCAM1 expression at 10 uM after 1 hr by flow cytometry analysis; format: functional; details: Homo sapiens
HUVEC [6] = test: Antiinflammatory activity in HUVEC assessed as inhibition of TNFalpha-induced ICAM1 expression at 10 uM after 1 hr by flow cytometry analysis; format: functional; details: Homo sapiens
HUVEC [7] = test: Antiinflammatory activity in HUVEC assessed as inhibition of TNFalpha-induced VCAM1 expression after 1 hr by flow cytometry analysis; format: functional, cell-based; details: Homo sapiens
HUVEC [8] = test: Antiinflammatory activity in HUVEC assessed as inhibition of TNFalpha-induced E-selectin expression at 10 uM after 1 hr by flow cytometry analysis; format: functional, cell-based; details: Homo sapiens
HUVEC [9] = test: Antiinflammatory activity in HUVEC assessed as inhibition of HLA-E expression at 10 uM after 1 hr by flow cytometry analysis; format: functional, cell-based; details: Homo sapiens
HUVEC [10] = test: Antiinflammatory activity in HUVEC assessed as inhibition of MICA expression at 10 uM after 1 hr by flow cytometry analysis; format: functional, cell-based; details: Homo sapiens
HUVEC [11] = test: Antiinflammatory activity in HUVEC assessed as inhibition of HLA-I expression at 10 uM after 1 hr by flow cytometry analysis; format: functional, cell-based; details: Homo sapiens
HUVEC [12] = test: Antiinflammatory activity in HUVEC assessed as inhibition of IFNgamma-induced HLA-E expression at 10 uM after 1 hr by flow cytometry analysis; format: functional; details: Homo sapiens
HUVEC [13] = test: Antiinflammatory activity in HUVEC assessed as inhibition of IFNgamma-induced HLA-II expression at 10 uM after 1 hr by flow cytometry analysis; format: functional; details: Homo sapiens
[14] = Inhibition of vesperlysine-type advanced glycation end products formation using bovine serum albumin after 24 hrs by microtiter plate assay; format: functional
[15] = Inhibition of pentosidine-type advanced glycation end products formation using bovine serum albumin after 24 hrs by microtiter plate assay; format: functional

SMILES | Activity (HUVEC [1]) | Activity (HUVEC [2]) | Activity (HUVEC [3]) | Activity (HUVEC [4]) | inhibition at 10 µM (HUVEC [5]) [%] | inhibition at 10 µM (HUVEC [6]) [%] | IC50 (HUVEC [7]) [µM] | inhibition (HUVEC [8]) | inhibition (HUVEC [9]) | inhibition (HUVEC [10]) | inhibition (HUVEC [11]) | inhibition at 10 µM (HUVEC [12]) [%] | inhibition at 10 µM (HUVEC [13]) [%] | IC50 [14] [µg/mL] | IC50 [15] [µg/mL]
CC(C)=CCC1(CC=C(C)C)C(=O)c2c(-c3ccccc3)cc(=O)oc2C(C(=O)C(C)C)=C1O | Non-toxic | Non-toxic | Non-toxic | Non-toxic | ≤ 52 | ≤ 23 | 10.2 | inactive | Active | Active | inactive | ≤ 95 | ≤ 95 |  | 
N=C(N)NN [PIMAGEDINE] |  |  |  |  |  |  |  |  |  |  |  |  |  | 700 (≈ 9.45 mM) | 150 (≈ 2.02 mM)

— ChEMBL document CHEMBL3608262, “Lepidotol A from Mesua lepidota Inhibits Inflammatory and Immune Mediators in Human Endothelial Cells” (J Nat Prod, 2015)
